PMC9501810, “Bitter Peptides YFYPEL, [sequence], and [sequence], Released during Gastric Digestion of Casein, Stimulate Mechanisms of Gastric Acid Secretion via Bitter Taste Receptors TAS2R16 and TAS2R38” (Journal of Agricultural and Food Chemistry, 2022)

Assays:
Format in all cases: cell-based, human
[1] = test system: TAS2R38; assay: Proton secretion assay in TAS2R38 knock-down vs mock-transfected HGT-1 cells; details: TAS2R38kd vs mock-transfected HGT-1 cells, VAPFPEVF 17.5 µM, YFYPEL 0.03 µM, YQEPVLGPVRGPFPIIV 0.4 µM, 10 min, mean ± SEM; for reduction of the peptide-induced stimulation of proton secretion in TAS2R38kd cells: 72 h after 1 nM siRNA; for change of peptide-induced proton secretion, TAS2R38kd (in Figure 5E–G): negative = reduction
Experimental: The measurement of proton secretion from HGT-1 cells represents a well-established model for the identification of bitter compounds. By affecting extraoral bitter taste receptors with bitter compounds, a modulatory effect on proton secretion can be measured. For this purpose, cells were washed with KRHB and incubated with 3 μM of the intracellular pH indicator 1,5 carboxy-seminaphto-rhodafluor acetoxymethyl ester (SNARF-1-AM) under standard conditions. After 30 min, the cells were washed again with KRHB and then incubated with casein (0.01–10 μM equimolar related to the relevant forms αS1- and β-casein), hydrolysate (0.01–10 μM), or the peptides (0.01–200 μM). […] All substances were dissolved and diluted in KRHB. 1 mM histamine was used as a positive control. Measurements were performed using FlexStation 3 (Molecular Devices, USA). The excitation wavelength was 488 nm, and the emission wavelengths were 580 and 640 nm. For calibration (pH range 7.0–8.0), the intracellular and extracellular pH was adjusted with 2 μM nigericin in potassium buffer (20 mM NaCl, 110 mM KCl, 1 mM CaCl2, 1 mM MgSO4, 18 mM D-glucose, and 20 mM HEPES). The intracellular proton index (IPX) was calculated as the log2 value of the 580/640 ratio and compared with cells without treatment. Negative values represent increased secretion of protons and therefore stimulation of mechanisms regulating gastric acid secretion in HGT-1 cells. In contrast, positive values represent an inhibition of secretion compared to the untreated control.
Expression of TAS2R16 and TAS2R38 was reduced by treatment of HGT-1 cells with siRNA. 100,000 cells per well were seeded 1 day before the experiment into a 24-well plate. All reagents and siRNA were purchased from Thermo Fisher Scientific, USA (cytotoxicity was excluded by MTT). Transfection was performed with Lipofectamine RNAiMAX in Opti-Medium according to the manufacturer’s protocol. 1–50 nM of different siRNA sequences (HSS121396 and HSS181763 for TAS2R16 and HSS108754 and HSS108756 for TAS2R38) and three different incubation times (24, 48, and 72 h) were tested. Mock control experiments were performed analogously with 1 or 10 nM Stealth RNAi siRNA negative control. To verify the functionality of the transfection process, verified 10 nM siRNA targeting MAPK1 (VHS40312) was used (positive control). The transfection rate was checked by qPCR as described in section 2.11. For the proton secretion assays, 20,000 cells per well were seeded 1 day before transfection into a black 96-well plate. After 72 h of transfection, proton secretion activities of TAS2R16 knock-down or TAS2R38 knock-down HGT-1 were compared with the mock transfected cells by means of ΔIPX.

[2] = test system: TAS2R5; assay: RT-qPCR gene expression of TAS2R5 in HGT-1 cells; details: VAPFPEVF 17.5 µM, YFYPEL 0.03 µM, YQEPVLGPVRGPFPIIV 0.4 µM, normalized to PPIA and GAPDH and untreated cells, mean, n = 3–5
Experimental: (§1) For mRNA expression analysis, 800,000 cells were seeded in a T25 cell culture flask (25 cm^2) 1 day before the experiment. After incubation with 17.5 μM […], 0.03 μM YFYPEL, or 0.4 μM […] for 15, 30, 60, and 120 min, RNA was isolated using the peqGOLD RNA Kit (VWR Peqlab, USA) following the manufacturer’s protocol. Determination of RNA concentration (A260/A280 between 2.03 and 2.09) was performed on a NanoDrop One^c (Thermo Fisher Scientific Inc., USA). RNA integrity number (RIN 9.9–10.0, version 2.6, assay class Eukaryote Total RNA Nano) was analyzed using a 2100 Bioanalyzer (Agilent Technologies, USA). Removal of gDNA and synthesis of cDNA were performed using the iScript gDNA Clear cDNA Synthesis Kit (BioRad, Feldkirchen, Germany) following the manufacturer’s protocol. Real-time-qPCR (RT-qPCR) was performed with 50 ng cDNA amplified with SsoAdvanced Universal SYBR Green Supermix (Bio-Rad Laboratories, Inc., USA). The sequences of the forward and reverse primers of the 25 TAS2Rs were taken from Liszt et al.([13]) (Supporting Information Table-SI 3). Verified primers for the TAS1Rs (TAS1R1: qHsaCID0013443; TAS1R2: qHsaCID0016106; TAS1R3: qHsaCED0002321) and for MAPK1 (qHsaCEP0050000) were obtained from Bio-Rad Laboratories. PPIA[37] and GAPDH[38] were used as reference genes. The effects of the peptides on gene expression were analyzed in comparison to untreated control cells.

[3] = test system: TAS2R13; assay: RT-qPCR gene expression of TAS2R13 in HGT-1 cells; details: VAPFPEVF 17.5 µM, YFYPEL 0.03 µM, YQEPVLGPVRGPFPIIV 0.4 µM, normalized to PPIA and GAPDH and untreated cells, mean, n = 3–5
Experimental: as §1

[4] = test system: TAS2R31; assay: RT-qPCR gene expression of TAS2R31 in HGT-1 cells; details: VAPFPEVF 17.5 µM, YFYPEL 0.03 µM, YQEPVLGPVRGPFPIIV 0.4 µM, normalized to PPIA and GAPDH and untreated cells, mean, n = 3–5
Experimental: as §1

[5] = test system: TAS2R40; assay: RT-qPCR gene expression of TAS2R40 in HGT-1 cells; details: VAPFPEVF 17.5 µM, YFYPEL 0.03 µM, YQEPVLGPVRGPFPIIV 0.4 µM, normalized to PPIA and GAPDH and untreated cells, mean, n = 3–5
Experimental: as §1

[6] = test system: TAS2R43; assay: RT-qPCR gene expression of TAS2R43 in HGT-1 cells; details: VAPFPEVF 17.5 µM, YFYPEL 0.03 µM, YQEPVLGPVRGPFPIIV 0.4 µM, normalized to PPIA and GAPDH and untreated cells, mean, n = 3–5
Experimental: as §1

[7] = test system: TAS2R50; assay: RT-qPCR gene expression of TAS2R50 in HGT-1 cells; details: VAPFPEVF 17.5 µM, YFYPEL 0.03 µM, YQEPVLGPVRGPFPIIV 0.4 µM, normalized to PPIA and GAPDH and untreated cells, mean, n = 3–5
Experimental: as §1

[8] = test system: TAS2R60; assay: RT-qPCR gene expression of TAS2R60 in HGT-1 cells; details: incubation 15/30/60/120 min, VAPFPEVF 17.5 µM, YFYPEL 0.03 µM, YQEPVLGPVRGPFPIIV 0.4 µM, expression not detectable with or without treatment
Experimental: as §1

[9] = test system: TAS1R1; assay: RT-qPCR gene expression of TAS1R1 in HGT-1 cells
Experimental: as §1

[10] = test system: TAS1R3; assay: RT-qPCR gene expression of TAS1R3 in HGT-1 cells
Experimental: as §1

[11] = 15/30/60/120 min, VAPFPEVF 17.5 µM, YQEPVLGPVRGPFPIIV 0.4 µM, n = 3

| Substance | reduction of the peptide-induced stimulation of proton secretion in TAS2R38kd cells [1] [%] | change of peptide-induced proton secretion, TAS2R38kd (in Figure 5E–G) [1] [%] | change in gene expression of TAS2R5 ([2]; incubation 15 min) [fold change] | change in gene expression of TAS2R5 ([2]; incubation 30 min) [fold change] | change in gene expression of TAS2R5 ([2]; incubation 60 min) [fold change] | change in gene expression of TAS2R5 ([2]; incubation 120 min) [fold change] | change in gene expression of TAS2R13 ([3]; incubation 15 min) [fold change] | change in gene expression of TAS2R13 ([3]; incubation 30 min) [fold change] | change in gene expression of TAS2R13 ([3]; incubation 60 min) [fold change] | change in gene expression of TAS2R13 ([3]; incubation 120 min) [fold change] | change in gene expression of TAS2R31 ([4]; incubation 15 min) [fold change] | change in gene expression of TAS2R31 ([4]; incubation 30 min) [fold change] | change in gene expression of TAS2R31 ([4]; incubation 60 min) [fold change] | change in gene expression of TAS2R31 ([4]; incubation 120 min) [fold change] | change in gene expression of TAS2R40 ([5]; incubation 15 min) [fold change] | change in gene expression of TAS2R40 ([5]; incubation 30 min) [fold change] | change in gene expression of TAS2R40 ([5]; incubation 60 min) [fold change] | change in gene expression of TAS2R40 ([5]; incubation 120 min) [fold change] | change in gene expression of TAS2R43 ([6]; incubation 15 min) [fold change] | change in gene expression of TAS2R43 ([6]; incubation 30 min) [fold change] | other results |
| --- | --- | --- | --- | --- | --- | --- | --- | --- | --- | --- | --- | --- | --- | --- | --- | --- | --- | --- | --- | --- | --- |
| VAPFPEVF [bitter casein peptide αS1-CN25–32] | 37.5 ± 9.8 | -37.5 ±9.8 | 0.91 | 1.05 | 0.93 | 1.23 | 0.44 | 1.28 | 1.01 | 1.92 | 0.66 | 1.14 | 0.70 | 1.22 | 0.81 | 1.54 | 0.88 | 1.42 | 0.57 | 1.14 | change in gene expression of TAS2R43 ([6]; incubation 60 min): 0.72 fold change; change in gene expression of TAS2R43 ([6]; incubation 120 min): 1.49 fold change; change in gene expression of TAS2R50 ([7]; incubation 15 min): 0.56 fold change; change in gene expression of TAS2R50 ([7]; incubation 30 min): 1.39 fold change; change in gene expression of TAS2R50 ([7]; incubation 60 min): 0.83 fold change; change in gene expression of TAS2R50 ([7]; incubation 120 min): 1.56 fold change; change in gene expression of TAS2R60 [8]: not detected; change in expression of TAS1R1 [9, 11]: no significant effect; change in expression of TAS1R3 [10, 11]: no significant effect |
| YFYPEL [bitter casein peptide αS1-CN144–149] | 62.8 ± 7.0 | -62.8 ±7.0 | 1.34 | 1.03 | 0.90 | 1.02 | 1.14 | 0.53 | 0.78 | 0.88 | 1.65 | 0.91 | 0.96 | 1.09 | 1.90 | 0.82 | 0.59 | 0.75 | 1.49 | 0.64 | change in gene expression of TAS2R43 ([6]; incubation 60 min): 0.91 fold change; change in gene expression of TAS2R43 ([6]; incubation 120 min): 1.02 fold change; change in gene expression of TAS2R50 ([7]; incubation 15 min): 1.50 fold change; change in gene expression of TAS2R50 ([7]; incubation 30 min): 0.70 fold change; change in gene expression of TAS2R50 ([7]; incubation 60 min): 0.92 fold change; change in gene expression of TAS2R50 ([7]; incubation 120 min): 0.91 fold change; change in gene expression of TAS2R60 [8]: not detected; change in expression of TAS1R1 ([9]; 0.03 µM YFYPEL, 30 min, p < 0.001): decrease; change in expression of TAS1R3 ([10]; 0.03 µM YFYPEL, 15 min, p < 0.0001): significant increase |
